The target of data set [1] is T1, NT650/PD-L1 (recombinant human PD-L1) (Homo sapiens, UniProt Q9NZQ7).
T1 construct: purchased Abcam ab167713
Description: Single-point MST binding assay. The following applies: 250 µM compound; for Binder (single-point binder flag): 50 nM NT650/PD-L1, pH 7.2, F-norm outside vehicle ± 3 SD; for Single-point binding result (in words): NT650/PD-L1. Here is the method:
Putative hit compounds were defined as those molecules inducing a thermophoretic movement of the ligand-bound complex with a fluorescent signal (F-norm) outside the signal value and three-fold standard deviations of the negative control (vehicle, DMSO).
(§1) Biophysical Binding Assays. A lyophilized form of the recombinant human PD-L1 protein was purchased from Abcam (ab167713, Abcam, Cambridge, UK) and reconstituted by adding sterile deionized water to reach a theoretical concentration of 400 µg/mL in PBS (PBS7.2: 50 mM KH2PO4, 0.05% Tween 20, pH 7.2). […] Then, the protein was labeled with a fluorescent dye using the Protein Labelling Kit RED-NHS (NT650, NanoTemper Technologies GmbH, Munich, Germany) and a 1:4 ratio (protein:dye). […] The unbounded fluorophore was removed by a size-exclusion chromatography column using a PBS7.2 storage buffer (pH 7.2). The removal of the unbounded fluorophore was also repeated by conditioning the size-exclusion chromatography column with a phosphate buffer at pH 6.2 (PBS6.2: 50 mM KH2PO4, 0.05% Tween 20, pH 6.2).
(§2) Ligand binding experiments were performed using MST (Monolith NT.115; NanoTemper Technologies GmbH, Munich, Germany). This method is based on the principle of thermophoresis, which is the movement of a biomolecular complex in a temperature gradient depending on the size, charge, and hydration shell that typically change upon ligand/target interaction. The selected 10 highly soluble fragments were purchased from Life Chemicals. […] A vehicle of DMSO 2% was used as negative control.
Single-point binding assays were carried out, recording the MST signal for each capillary at medium laser power and 40% LED power, choosing the manual mode with a 19/20 s hot region. Each experiment was repeated three times employing premium-coated capillaries.

Data set [2] concerns the target T1, NT650/PD-L1 (recombinant human PD-L1). Description: Full-point MST binding assay (Kd) at pH 7.2 and 6.2. The following applies: for BEI (pH 6.2) / BEI: BEI = pKd/MW (kDa); for delta increment of BEI: pH 6.2 versus pH 7.2; for BEI: pH 7.2. How it is done:
These compounds were next tested in full ligand binding assays against NT650/PD-L1 at pH 7.2, using the scalar concentration of each compound to obtain binding curves and the relative dissociation constants (Kd).
as §1, §2
Each compound was tested starting the 1:1 dilution from a 1 mM concentration in MST buffer (PBS7.2 and PBS6.2) with 2% DMSO. An amount of 10 µL solution of 100 nM NT650/PD-L1 was added to each compound dilution and mixed to halve the final concentration of each component, including 2% DMSO, and reach a reaction volume of 20 µL. After incubating the mixtures for 30 min, samples were loaded into 16 premium-coated capillary tubes for MST analysis. MST signals were recorded for each capillary at medium laser power and 40% LED power, choosing the manual mode with 19/20s hot region.
The Binding Efficiency Index (BEI) was calculated using the following equation [Equation (1)] [43]:BEI = pKd/MW (kDa)(1)
(§3) In all binding experiments and ligand binding displacement assays, raw data were analyzed using MO.Affinity analysis software v2.3 (NanoTemper Technologies GmbH, Munich, Germany). Kd values were extrapolated by compound concentration-dependent changes of the NT650/PD-L1 F-norm signals using MO.Affinity analysis software v2.3.
(§4) MST experiments were carried out using a Monolith NT.115 instrument (NanoTemper Technologies GmbH, Munich, Germany).

Data set [3] can be described thus: pKa by potentiometric titration (SiriusT3). The class given is physicochemical. The following applies: 25 °C, n.3. From the text: The first value (pKa1) corresponds to the deprotonated state of the protonated oxime nitrogen atom, entailing the neutral form. The second value (pKa2) is associated to the deprotonation of the oxime hydroxyl group, providing the anionic form of the compound. The presence of electron-withdrawing and/or -donating groups on the benzene ring may affect these values, entailing different stabilities of the cationic, neutral, and anionic species at a given pH. Accordingly, we used a potentiometric titration method to determine the pKa values of VIS310 and its analogues (9, 16–20).
Table 3 reports the experimental pKa values of BMS-202 (5), VIS310 (9), and its analogues (16–20), as obtained using SiriusT3 instrument. […] Therefore, the very high pKa value corresponding to the deprotonation of the oxime hydroxyl group was not experimentally determined in the compounds. Conversely, one or two pKa values were obtained, depending on the presence of a phenol moiety in the benzamidoxime derivatives. […] This is more evident with the insertion of the para hydroxyl group in the compounds VIS1201 (17; pKa1 = 5.35), VIS1202 (18; pKa1 = 5.38), VIS1203 (19; pKa1 = 5.38), and VIS310 (9; pKa1 = 5.65). These latter compounds show also a second value of the acid dissociation constant (pKa2) that corresponds to the deprotonated state of the phenolic group, entailing the anionic form of the compound. […] At pH 7.2, the microspecies adopting a neutral form increases, whereas the cationic form decreases, and a minor part of the microspecies starts adopting an anionic form (Figures S2 and S3, supplementary material).
Physicochemical Property Evaluations. Acidic constants (calcpKa) of compounds were calculated using the calculator plugin Marvin (v20.11, 2021; ChemAxon, Budapest, Hungary).
Each experiment was performed by specifying the sample weight, number of expected pKa values, calculated pKa (calcpKa) values, titration mode, and number of titrations (n.3). In order to measure the pKa of a compound, a sample concentration of 1 mM was prepared and dissolved, adding methanol as the co-solvent. […] Titrations of compounds 16–20 were performed using a ratio of 45%, 40%, 35% methanol. The Yasuda–Shedlovsky method was chosen to extrapolate aqueous pKa values. The R^2 value was used to evaluate the validity of the assay with a co-solvent, and the results were considered acceptable with a R^2 value ≥ 0.9 (Table S3, supplementary material). The accuracy of the pKa assay was also evaluated using the buffer index profile of the analyte. Specifically, the buffering capacity signal of the analyte must be above the intrinsic buffering capacity of water in order to have an accurate potentiometric measurement. Results were analyzed using Sirius T3 software v1.1.3.

The target of the next data set is T2, PD-1/PD-L1 complex (Homo sapiens, UniProt Q9NZQ7).
T2 construct: purchased Abcam ab167713 (PD-L1)
T2 sequence (Q9NZQ7 19-238 limits assumed, one chain of several): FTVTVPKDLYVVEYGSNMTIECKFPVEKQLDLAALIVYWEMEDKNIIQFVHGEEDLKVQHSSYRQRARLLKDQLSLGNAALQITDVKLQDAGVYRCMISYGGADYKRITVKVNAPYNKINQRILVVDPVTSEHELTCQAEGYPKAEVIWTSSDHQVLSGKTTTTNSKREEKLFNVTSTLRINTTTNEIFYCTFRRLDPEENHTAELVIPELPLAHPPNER
Briefly: Ligand binding displacement assay of PD-1/PD-L1 complex (MST). The following applies: pH 6.2, 50 and 100 μM. Here is the method:
This study was carried out with MST.
Ligand binding displacement assays were carried out with MST. […] The reconstitution of the protein was done by adding sterile deionized water to achieve a final concentration of 1 mg/mL in PBS7.2. […] The protein was tested starting the 1:1 dilution from a 26 μM concentration in MST buffer (PBS6.2) with 2% DMSO. […] After incubating the mixtures for 40 min in the dark, samples were loaded into 16 premium-coated capillary tubes for MST analysis. MST signals were recorded for each capillary at medium laser power and 80% LED power, choosing the Default on Time (DoT) mode with 4/5s hot region.
as §3, §4

On the set-up of data set [4]: method as in PMID 25621618. The following applies: UV/vis titration, cited from earlier work.
Setting [5] is: pH 7.2, n.3, read-out: Kd ± c.v.
Setting [6] is: oxime nitrogen atom, methanol co-solvent, Yasuda–Shedlovsky extrapolation, read-out: pKa1.
[7] abbreviates: phenolic group (9, 17–19), secondary amine group (5), read-out: pKa2.
Where [8] appears, read: pH 6.2, n.3, read-out: Kd ± c.v.

“Also recorded” adds a separate entry of the source. Read-outs that look alike come from different tables or passages of the source.

T1 sequence (Q9NZQ7 19-290): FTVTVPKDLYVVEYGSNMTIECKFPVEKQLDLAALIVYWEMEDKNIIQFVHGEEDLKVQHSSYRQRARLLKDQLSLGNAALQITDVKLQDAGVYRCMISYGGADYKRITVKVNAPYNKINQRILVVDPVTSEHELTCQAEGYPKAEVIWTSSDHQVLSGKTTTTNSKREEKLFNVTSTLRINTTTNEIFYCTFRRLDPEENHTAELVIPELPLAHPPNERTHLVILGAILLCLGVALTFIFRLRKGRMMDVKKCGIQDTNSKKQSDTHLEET

As for `NCc1n[nH]c(=O)c2ccccc12` [VIS285], in data set [1], the “Binder (single-point binder flag)” value is on record as “x/o” and the “Single-point binding result (in words)” value was “at the borderline of the definition criterion”. In data set [2] (setting [5]), the Kd – broadly, the concentration at which binding is half-saturated – is greater than 250 µM.
Regarding `Cc1cc(O)ccc1C(=N)NO` [VIS1203], the results for the pKa in data set [3] (setting [6]) and in data set [3] (setting [7]) were 5.38 ± 0.01 and 9.17 ± 0.02, respectively. Moreover, the dissociation constant Kd in data set [2] (setting [8]) was 54.9 ± 8.2 µM; in data set [2] (setting [5]) it was greater than 1000 µM. Besides, in data set [2], the “BEI (pH 6.2)” value was found to be 25.7.
Consider `Cc1cc(C(=N)NO)ccc1O` [VIS1202], for which the pKa in data set [3] (setting [6]) is 5.38 ± 0.01; in data set [3] (setting [7]) it was 8.97 ± 0.03. Further, the Kd in data set [2] (setting [8]) was 55.4 ± 9.86 µM; in data set [2] (setting [5]), greater than 1000 µM. Moreover, the “BEI (pH 6.2)” value in data set [2] turned out to be 25.6.
Take `N=C(NO)c1ccccc1-c1ccccc1` [VIS1204]: the pKa in data set [3] (setting [6]) is 5.3 ± 0.01. Also, the Kd in data set [2] (setting [8]) was 70.8 ± 12.7 µM. In addition, in data set [2], the “BEI (pH 6.2)” value is given as 19.6, the “delta increment of BEI” value is given as “+1.5” and the BEI came to 18.1. In addition, the Kd in data set [2] (setting [5]) is 148 ± 71.3 µM.
As to `C[C@]1(O)CC[C@@H]1N1CC2CCCCC2C1` (some centres unmarked) [VIS1079], in data set [1], the “Binder (single-point binder flag)” value was “x/o” and the “Single-point binding result (in words)” value is “at the borderline of the definition criterion”. For the same compound, in data set [2] (Kd ± c.v., pH 7.2, n.3), the Kd was greater than 250 µM.
For `Cc1cc(C)cc(C(=N)NO)c1` [VIS1200], in data set [3] (setting [6]), the pKa is 5.26 ± 0.01. The Kd in data set [2] (setting [8]) was 95.6 ± 20.6 µM; in data set [2] (setting [5]) it was greater than 1000 µM. Further, the “BEI (pH 6.2)” value in data set [2] came to 24.5.
Consider `N=C(NO)c1ccc(O)cc1` [VIS1201], for which the pKa in data set [3] (setting [6]) is 5.35 ± 0.12. Moreover, in data set [3] (setting [7]), the pKa was determined as 8.64 ± 0.01. Moreover, on PD-1/PD-L1 complex, the “Inhibition of PD-1/PD-L1 interaction (in words)” value is given as “dose-dependently inhibits the PD-1/PD-L1 interaction; also recorded: dose-dependently inhibit the formation of the PD-1/PD-L1 complex”. Further, the Kd in data set [2] (setting [8]) came out at 45.2 ± 10.6 µM. For the same compound, in data set [2], the “BEI (pH 6.2)” value is on record as 28.6, the “delta increment of BEI” value is “+8.9” and the BEI is given as 19.7. Besides, the Kd in data set [2] (setting [5]) is greater than 1000 µM.
As to `O=C(NCc1ccc(F)cc1)c1ccc2nc[nH]c2c1` [VIS545], in data set [1], the “Binder (single-point binder flag)” value is on record as “x/o” and the “Single-point binding result (in words)” value was “at the borderline of the definition criterion”. Further, the Kd in data set [2] (setting [5]) is greater than 250 µM.
With `Cc1ccc(Cn2c(S)nc3c2c(=O)n(C)c(=O)n3C)cc1` [VIS826], the Kd in data set [2] (setting [5]) was greater than 250 µM.
Turning to `COC(=O)c1ccc(C)c2c1-c1ccccc1OC2` [VIS879], the Kd in data set [2] (setting [5]) was greater than 250 µM.
With `O=C(O)c1cccc2c1-c1ccccc1OC2` [VIS877], in data set [2] (setting [5]), the Kd was greater than 250 µM.
`NC(=NO)c1ccccc1` [benzamidoxime]: in data set [4] (oxime hydroxyl group), the pKa2 is given as 12.36. Besides, the pKa1 in data set [4] (protonated oxime nitrogen) is given as 4.85.
As for `[H]/N=C1\NC(=O)[C@H](CC(=O)Nc2cccc3ccccc23)S1` [VIS303], in data set [1], the “Single-point binding result (in words)” value is reported as “hit compounds”. The dissociation constant (Kd) in data set [2] (setting [5]) is greater than 250 µM.
`NCCSc1c[nH]c2ccccc12` [VIS284]: the “Single-point binding result (in words)” value in data set [1] is recorded as “hit compounds”. The Kd in data set [2] (setting [5]) is greater than 250 µM.
Turning to `Cc1cc(/C(N)=N/O)cc(C)c1O` [VIS310], the pKa is 5.65 ± 0.01 in data set [3] (setting [6]) and 9.32 ± 0.02 in data set [3] (setting [7]). In data set [1], the “Single-point binding result (in words)” value is “hit compounds”. In addition, the Kd in data set [2] (setting [8]) is 47.8 µM; in data set [2] (setting [5]), 164 µM. Besides, the “BEI (pH 6.2)” value in data set [2] was 24.0. Also, the BEI in data set [2] was found to be 21.0.
For the compound `Nc1[nH]ncc1-c1ccc(F)cc1F` [VIS32926], in data set [1], the “Binder (single-point binder flag)” value is reported as “x/o” and the “Single-point binding result (in words)” value is “at the borderline of the definition criterion”. Besides, in data set [2] (setting [5]), the Kd is greater than 250 µM.
